Tests used:
Format in all cases: cell-based
[1] = biological target: T1, endogenous Ube2G2 (Homo sapiens, UniProt P60604); test: Co-immunoprecipitation of endogenous Ube2G2 with GFP fusions in HEK 293T cells; conditions: anti-GFP IP
T1 construct: endogenous in cells; host or cells: HEK 293T
T1 sequence (P60604 1-165): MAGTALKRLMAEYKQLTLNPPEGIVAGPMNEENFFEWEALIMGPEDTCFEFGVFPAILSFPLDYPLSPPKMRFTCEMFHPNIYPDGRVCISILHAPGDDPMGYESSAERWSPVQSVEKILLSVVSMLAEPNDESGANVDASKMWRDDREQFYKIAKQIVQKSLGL
Procedure: (§1) Transfections of HT1080, NIH 3T3 and HEK 293T cells were carried out ˜24 hr after plating using Polyfect (Qiagen, Valencia, Calif.) and cells harvested after ˜48 hr. J558 cells were transfected by electroporation using Bio-rad GENE pulser II at settings of 250 v, 950uF. Vector without insert was used to equalize total plasmid. In most experiments 0.15 μg of pEGFP-C1 served as an internal control. For experiments not involving immunoprecipitation, 6×10^5 cells were plated in 6 well plates and cell lysis was with Mammalian Protein Extraction Reagent (Pierce). […] Supernatants were analyzed after a 10,000×g centrifugation using standard techniques for immunoprecipitation, SDS-PAGE, immunoblotting and ECL. […]
(§2) FIG. 6 depicts the specific binding of gp78 residues 574-611 (of SEQ ID NO:2) to endogenous Ube2G2 in HEK 293T cells. Cells were transfected with plasmids encoding GFP fusions of the indicated regions of gp78, and co-immunoprecipitation was evaluated. […]
(§3) To determine the specificity of E2 binding in cells, GFP fusions encompassing the E2 binding region were expressed in cells, and co-immunoprecipitation of endogenous E2 was tested using antibodies raised specifically against Ube2g1, Ube2G2 and UbcH5B (FIG. 19B). […] In contrast, and consistent with the in vitro binding data in FIG. 18, no association with endogenous UbcH5B or Ube2g1 was detected (FIG. 19B third and fourth panels, left). […]

[2] = biological target: T2, endogenous Ube2g1 (Homo sapiens, UniProt P62253); test: Co-immunoprecipitation of endogenous Ube2G1 with GFP fusions in HEK 293T cells; conditions: anti-GFP IP
T2 construct: endogenous in cells; host or cells: HEK 293T
T2 sequence (P62253 1-170): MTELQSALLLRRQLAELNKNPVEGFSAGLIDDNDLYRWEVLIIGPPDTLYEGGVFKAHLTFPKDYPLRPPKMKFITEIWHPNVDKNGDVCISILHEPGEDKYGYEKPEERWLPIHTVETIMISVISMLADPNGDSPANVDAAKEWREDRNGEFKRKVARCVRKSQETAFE
Procedure: as §1, §2, §3

[3] = biological target: T3, endogenous UbcH5B (Homo sapiens, UniProt P62837); test: Co-immunoprecipitation of endogenous UbcH5B with GFP fusions in HEK 293T cells; conditions: anti-GFP IP
T3 construct: endogenous in cells; host or cells: HEK 293T
T3 sequence (P62837 whole entry, the tested form may be a part): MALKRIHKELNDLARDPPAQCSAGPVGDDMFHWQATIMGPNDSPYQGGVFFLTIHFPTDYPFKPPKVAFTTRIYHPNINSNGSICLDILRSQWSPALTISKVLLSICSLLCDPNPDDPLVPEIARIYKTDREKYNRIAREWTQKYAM
Procedure: as §1, §2, §3

[4] = test system: ERAD substrate CD3-δ; test: CD3-δ level in co-transfected cells by immunoblotting; conditions: co-transfection with CD3-δ, immunoblot
Procedure: (§4) Transfections of HT1080, NIH 3T3 and HEK 293T cells were carried out ˜24 hr after plating using Polyfect (Qiagen, Valencia, Calif.) and cells harvested after ˜48 hr. J558 cells were transfected by electroporation using Bio-rad GENE pulser II at settings of 250 v, 950uF. Vector without insert was used to equalize total plasmid. In most experiments 0.15 μg of pEGFP-C1 served as an internal control. For experiments not involving immunoprecipitation, 6×10^5 cells were plated in 6 well plates and cell lysis was with Mammalian Protein Extraction Reagent (Pierce). For immunoprecipitation, 2.4×10^6 cells were seeded in 100 mm dishes and cells were lysed in RIPA buffer (1×PBS, 1% Nonidet P40. 0.5% sodium deoxycholate, 0.1% SDS). Lysis buffers were supplemented with Protease Inhibitor Cocktail (Sigma) and 10 mM iodoacetamide. Supernatants were analyzed after a 10,000×g centrifugation using standard techniques for immunoprecipitation, SDS-PAGE, immunoblotting and ECL. Treatment of cells with MG132 (Sigma) was at 50 μM for eight hr. Cycloheximnide was used at 50 μg/ml. All cells were collected at the end of the six hr chase.
FIG. 7 depicts the stabilization of CD3-δ protein in cells transfected with the G2BD, but not with the G2BD with amino acids 579-584 (of SEQ ID NO:2) mutated. HEK 293T cells were transfected with the ERAD substrate CD3-δ along with the indicated GFP fusions of gp78. The left and right sides are two separate experiments.
(§5) To test this, GFP fusions of either a minimal E2 binding domain (GFP-574-611) or a more extended region that includes the C-terminus of gp78 (GFP-574-643) were evaluated (FIG. 21A). […] To assess this further, the C-terminal region of gp78 was fused to the eight amino acid Flag tag. […] Mdm2 is a RING finger E3 for both itself and p53 that is neither an ERAD substrate nor known to utilize Ube2G2 as an E2. […] To establish with certainty that the effect observed with expression of the Ube2G2 binding site is a consequence of binding endogenous E2, and not due to other unanticipated effects, cells were co-transfected with increasing amounts of Ube2G2 (FIG. 21C, lanes 3 and 4). […] These findings clearly establish that the isolated E2 binding site has the potential to markedly alter ERAD of CD3-δ. To ensure the effect observed was not peculiar to one substrate, TCR-α was evaluated (FIG. 21D).

[5] = test system: ERAD substrate TCR-α; test: TCR-α level in co-transfected cells; conditions: co-transfection with TCR-α
Procedure: as §4
FIG. 9 depicts the stabilization of endogenous TCRα by the G2BD. TCR-α is a subunit of the T cell antigent receptor and an ERAD substrate. TCR-α was stabilized by the region implicated in Ube2G2 binding.
as §5

[6] = test system: NIH 3T3 cells; test: UPR markers in NIH 3T3 cells expressing GFP fusions
Procedure: as §4
(§6) Similarly, an increase in phospho-eIF2α, which attenuates translation and is activated by PERK, was also observed. […] An effective UPR ultimately requires an increase in ERAD. However, the ectopic expression of the Ube2G2 binding site should create a block specifically at this point.

[7] = test system: J558 cells; test: UPR markers in J558 myeloma cells expressing GFP fusions
Procedure: as §4
(§7) 24 hr after transfection with constructs encoding GFP or GFP fusion proteins, cells were stained with annexin V-PE (BD Pharmingen) and analyzed on a Beckman coulter XL. Data for J558 was average of three experiments, NIH 3T3 was from 2 experiments. Gates were set to analyze cells expressing GFP using 525 band-pass filter and evaluated for annexin V-PE staining using a 575 band-pass filter. To isolate cells expressing GFP, J558 cells were harvested 24 hr after transfection and sorted on a BD FACS Aria. Transfection efficiencies were 7-10%. 2×10^4 cells expressing GFP fusions were isolated.
Cells with active secretory pathways, such as myeloma, might be predicted to be particularly susceptible to ER stress. […] As with NIH 3T3 cells, expression of the Ube2G2 binding site in the well characterized myeloma cell line J558 led to increases in BiP and phospho-eIF2α.

[8] = test system: J558 cells; test: Annexin V staining by flow cytometry in J558 cells; conditions: 24 hours after transfection, vs GFP574-611E2-m2 or GFP alone
Excerpt: as §7
(§8) This was verified by a rapid loss of GFP immunoreactivity from cells expressing GFP574-611 (FIG. 7C). To confirm that this is a consequence of apoptosis, cells were evaluated by flow cytometry 24 hours after transfection. This early point was chosen, as by 48 hours few cells expressing the GFP574-611 could be discerned microscopically. […] Thus, the isolated Ube2G2 binding site of gp78 initiates an UPR in cells and a program leading to apoptotic cell death preferentially in myeloma cells.

[9] = test system: NIH 3T3 cells; test: Annexin V staining by flow cytometry in NIH 3T3 cells; conditions: 24 hours after transfection
Excerpt: as §7, §8

[10] = test system: HEK 293T cells or NIH 3T3 cells; test: Cell death by microscopy in HEK 293T or NIH 3T3 cells
Excerpt: as §6

[11] = test system: human multiple myeloma cells; test: Ube2G2 binding site expression in human myeloma
[12] = test system: HeLA, U20S and HT1080; test: Cell death in epithelial cancer and sarcoma cell lines
Excerpt: as §6

[13] = test system: J558 cells; test: Loss of J558 cells expressing GFP fusions by microscopy; conditions: relative to GFP574-611E2-m2
Procedure: as §8

“GFP-574-611: N-terminal GFP fusion of gp78 residues 574-611, a minimal E2 binding domain (SADERQRMLVQRKDELLQQARKRFLNKSSEDDAASESF; listed as Homo sapiens)” was tested, and the “co-immunoprecipitation of endogenous Ube2G2” value [1] was “sufficient to co-immunoprecipitate endogenous Ube2G2”, the “co-immunoprecipitation of endogenous Ube2G1” value [2] was “not co-immunoprecipitated” and the “co-immunoprecipitation of endogenous UbcH5B” value [3] was “not co-immunoprecipitated”. The “effect on CD3-δ level (stabilization)” value [4] was “dramatically stabilized CD3-δ”, the “effect on CD3-δ level (stabilization)” value ([4]; listed as 574-611) was “sufficient to stabilize CD3-δ” and the “effect on TCR-α level (stabilization)” value ([5]; listed as G2BD) was “stabilized”. For the same substance, the “effect on TCR-α level (stabilization)” value ([5]; listed as Ube2G2 binding site) was “markedly stabilized TCR-α”, the CHOP accumulation [6] was “no accumulation” and the “ER chaperone BiP level” value [6] was “increase”. For the same substance, the phospho-eIF2α level [6] was “increase”, the “total eIF2α level” value [6] was “not significantly altered” and the “loss of GFP fusion relative to mutant form” value ([6]; GFP immunoblot) was “nor was there any discernable loss”. The BiP level [7] was “increases”, the CHOP level [7] was “marked increase” and the “GFP immunoreactivity over time” value [7] was “rapid loss”. The phospho-eIF2α level [7] was “increases”, the “annexin V staining (apoptosis marker)” value [8] was “dramatic increase” and the “annexin V staining (apoptosis marker)” value [9] was “No significant increase”. For the same substance, the “cell death by microscopy” value [10] was “no microscopic evidence of increased cell death”, the “apoptosis in human myelomas” value [11] was “leads to apoptosis” and the cell death [12] was “lack of increased cell death”. For the same substance, the “loss of cells expressing the GFP fusion, by microscopy” value [13] was “differential loss”.

From patent publication US8420776B2, “Ube2G2 binding domain in the ubiquitin ligase gp78 and methods of use thereof” (The United States of America, as Represented by the …, priority 2004, dated 2013)
